Measured values: patent US20040209776A1, “Azole derivatives useful as insecticide” (priority 2001, published 2004)
Values belong to the molecule of their own block, whether it stands above or below them.

What was measured:
Myzus persicae = assay: Pest mortality test against peach potato aphids, infested Chinese cabbage leaves sprayed; type: in vivo; conditions: 72 h, 500 ppm by weight, sprayed on infested Chinese cabbage leaves, mortality assessed after three days, read-out: Mp mortality (score)
Experimental: (§1) This Example illustrates the pesticidal/insecticidal properties of compounds of formula (I). The activities of individual compounds of formula (I) were determined using a variety of pests. The pests were treated with a liquid composition containing 500 parts per million (ppm) by weight of a compound of formula (I). Each composition was made by dissolving the compound in an acetone and ethanol (50:50 by volume) mixture and diluting the solution with water containing 0.05% by volume of a wetting agent, SYNPERONIC NP8, until the liquid composition contained the required concentration of the compound. SYNPERONIC is a registered trade mark.
(§2) The test procedure adopted with regard to each pest was essentially the same and comprised supporting a number of the pests on a medium, which was usually a substrate, a host plant or a foodstuff on which the pests feed, and treating either or both the medium and the pests with a composition. Pest mortality was assessed usually between two and five days after treatment.
In each test against peach potato aphids (Myzus persicae), Chinese cabbage leaves were infested with aphids, the infested leaves were sprayed with a test composition and pest mortality was assessed after three days.

Diabrotica balteata = assay: Pest mortality test against corn root worm; type: in vivo; conditions: 120 h, 500 ppm by weight, mortality assessed usually between two and five days after treatment, read-out: Db mortality (score)
Experimental: as §1, §2
(§3) Similar tests were conducted against, independently, two-spotted spider mites (Tetranychus urticae), fruit flies (Drosophila melanogaster), tobacco budworms (Heliothis virescens), diamond back moth (Plutella xylostella) and corn root worm (Diabrotica balteata).

Heliothis virescens = assay: Pest mortality test against tobacco budworms; type: in vivo; conditions: 120 h, 500 ppm by weight, mortality assessed usually between two and five days after treatment, read-out: Hv mortality (score)
Experimental: as §1, §2, §3

Plutella xylostella = assay: Pest mortality test against diamond back moth; type: in vivo; conditions: 120 h, 500 ppm by weight, mortality assessed usually between two and five days after treatment, read-out: Px mortality (score)
Experimental: as §1, §2, §3

Meloidogyne incognita = assay: In vitro test against root knot nematodes suspended in liquid composition; type: in vivo; conditions: 12.5 ppm by weight, no SYNPERONIC NP8, read-out: Mi mortality (score)
Experimental: as §1
Tests were also conducted against root knot nematodes (Meloidogyne incognita) using an in vitro test in which nematodes were suspended in a liquid composition which had been prepared as described above except that it contained a concentration of 12.5 ppm by weight of a compound of formula (I) and it contained no SYNPERONIC NP8.

Drosophila melanogaster = assay: Pest mortality test against fruit flies; type: in vivo; conditions: 120 h, 500 ppm by weight, mortality assessed usually between two and five days after treatment, read-out: Dm mortality (score)
Experimental: as §1, §2, §3

SMILES: CCc1nsc(NC(=O)C(C)c2ccc3oc(-c4c(F)cccc4Cl)nc3c2)c1Cl (stereo not shown) [Compound 1, N-(4-chloro-3-ethylisothiazol-5-yl)-2-[2-(2-chloro-6-fluorophenyl)benzoxazol-5-yl]propionamide]
mortality at 500 ppm (Myzus persicae): 80 to 100% | mortality at 500 ppm (Diabrotica balteata): 80 to 100% | mortality at 500 ppm (Heliothis virescens): 80 to 100% | mortality at 500 ppm (Plutella xylostella): 80 to 100% | mortality at 12.5 ppm (Meloidogyne incognita): < 40% | mortality at 500 ppm (Drosophila melanogaster): 80 to 100%

melting point: 158 to 161 °C
SMILES: Cc1nsc(NC(=O)C(C)c2ccc3oc(-c4cccc(Cl)c4Cl)nc3c2)c1Cl (stereo not shown) [Compound 11, N-(4-chloro-3-methylisothiazol-5-yl)-2-[2-(2,3-dichlorophenyl)benzoxazol-5-yl]propionamide]
